Source: patent US20180111991A1, “MODULATORS OF ACTIVIN AND METHODS FOR MODULATING IMMUNE RESPONSES AND T FOLLICULAR HELPER CELLS” (LA JOLLA INSTITUTE FOR ALLERGY AND IMMUNOLOGY, priority 2014, published 2018)
“Also recorded” adds a separate entry of the source.

Legend:
[1] = system: rhesus macaque naïve CD4 T cells; assay: Non-human primate (NHP) differentiation; type: cell-based, macaca mulatta (rhesus macaques); settings: 5 days
Procedure: CD4^+ T cells from rhesus macaque PBMCs were enriched using the Non-Human Primate CD4^+ T Cell Isolation Kit (Miltenyi Biotec). Naïve CD4^+ T cells were isolated by FACS sorting as CD4^+CD45RA^+CD95^−CD28^+CCR7^+ cells. Naïve CD4^+ T cells (7.5×10^4 cells/well) were activated by plate-bound anti-human-CD3 and anti-human-CD28 (both at 5 μg/ml, BD) and cultured with recombinant human/mouse/rat activin A (50 ng/ml) and/or recombinant human IL-12 (5 ng/ml) for 5 days. Phenotype was assessed by flow cytometry.

SMAD2/3 [2] = assay: Analysis of phosphorylated SMAD2/3 in tonsil CD4 T cells; type: cell-based, human; settings: for P-SMAD induction: activin A
Excerpt: (§1) Fresh PBMCs and tonsil mononuclear cells were serum-starved over night in AIM-V medium. […] Following stimulation, the cells were fixed in BD Phosflow™ Fix Buffer I (BD Biosciences), then permeabilized using BD Phosflow™ Perm Buffer III (BD Biosciences) following manufacture's instruction.

SMAD2/3 [3] = assay: Analysis of phosphorylated SMAD2/3 in blood naïve CD4 T cells; type: cell-based, human
Excerpt: as §1

mouse naïve CD4 T cells = assay: Mouse CD4 T cell differentiation; type: cell-based, mouse (BALB/c, C57BL/6)
Procedure: Naïve CD4^+ T cells were isolated from spleen using the Naïve CD4^+ T cell isolation kit (Stem Cell). Purity was 92% or higher. Naïve CD4^+ T cells (2×10^5 cells/well) were cultured for 3 days with recombinant human/mouse/rat activin A (50 ng/ml, R&D Systems), recombinant mouse IL-12 (10 ng/ml, Peprotech), and/or recombinant mouse IL-6 (20 ng/ml, Peprotech) in the presence of plate-bound anti-mouse-CD3 mAb (8 μg/ml, clone 145-2C11, BioXcell) and anti-mouse-CD28 (8 μg/ml, clone 37.51, BioXcell), in RPMI medium, supplemented with 10% fetal bovine serum, GlutaMAX, penicillin/streptomycin, and 2.5 μM β-mercaptoethanol. After 3 days, cells were removed from stimuli and further cultured for 2 additional days in IL-2 (50 U/mL,) and the same cytokine combination used at day 0. Phenotype was quantified by FACS at day 5 of the in vitro culture.

human naïve CD4 T cells [4] = assay: Intracellular cytokine staining after PMA/Ionomycin restimulation; type: cell-based
Procedure: For surface staining, primary-staining panels used for phenotypic analysis or for cell sorting known in the art were used. For the intranuclear staining: cells were treated with the FoxP3 Fixation/Permeabilization kit (eBioscience) and stained in Permeabilization buffer (eBioscience). For cytokine staining: day 3 or day 5 in vitro differentiated cells (specified in the main text or in figure legends) cells were stimulated for 5 hours at 37° C. with Phorbol 12-myristate 13-acetate (PMA, 25 ng/ml) and Ionomycin (1 μg/ml) in the presence of Brefeldin A (5 μg/ml). Cells were fixed with PBS 2% FBS, 1% PFA and permeabilized with PBS 2% FBS, 0.5% Saponin (from quillaja bark, Sigma-Aldrich). Samples were analyzed on a LSR Fortessa Cell Analyzer (BD, Bioscience). Flow cytometry data were analyzed with FlowJo (Tree Star). For cell sorting, cells were sorted using sorted using a FACS Aria (BD, Bioscience).

human naïve CD4 T cells [5] = assay: qPCR / flow cytometry of LIF, PRDM1, SLAMF1, ITGβ7 on day 3 differentiated cells; type: cell-based; settings: for PRDM1 (BLIMP1) expression: RNA-seq and qPCR
Excerpt: FIG. 2A-O: Activin A plays a synergic role with IL-12 and molds the human Tfh gene program. (A-B) Bead purified naïve CD4 T cells from multiple healthy subjects were stimulated by anti CD3/CD28 beads on 96 well plates, in the presence of commercial human recombinant activin A, with or without IL-12. […] A representative donor is shown in (A). Data from 12 donors from 6 independent experiments are shown in (B). […] Data from one experiment representative of two are depicted (n=3). (D) Cells were cultured in vitro with different doses of activin A combined with a fixed amount of IL-12 for 5 days in the presence of anti-activin A mAb MOR8806 (block) or isotype control mAb (isotype). Graphs show mean and SEM from 3 independent experiments (n=8). Dotted lines indicate the average percentages of PD-1^+CXCR5^+ cells induced by IL-12 with isotype control mAb from 8 donors. (E) CCR7 MFI on day 5 in vitro differentiated cells. […] (J) RNA-seq analysis on day 3 in vitro differentiated cells. The “Volcano” plots show the absolute gene expression data set (RPKM) from cells differentiated with activin A and IL-12 versus cells differentiated with beads only. […] (K) Heat-map showing absolute expression (RPKM) of selected Tfh signature genes on cells differentiated with beads only, IL-12, activin A or activin A+IL12. (L and N) Relative expression (2-ΔCt) of LIF and PRDM1 was determined by qPCR. (M and O) SLAMF1 and ITGβ7 expression by flow cytometry. In (L) to (0) all the data were obtained from day 3 in vitro differentiated cells and are from at least 3 or more independent experiments (n=9 or higher). Bars show mean and SEM. * p<0.05, ** p<0.01 and *** p<0.001. RNA was isolated by QIAGEN RNeasy spin columns and reverse-transcribed into cDNA using Superscript II Reverse Transcriptase (Invitrogen). Quantitative real-time PCR of ACTB, LIF, and PRDM1 was performed using the following primers: ACTB forward, [NT], ACTB reverse, [NT] forward, [NT] reverse, [NT]; and PRDM1 forward, [NT], PRDM1 reverse [NT]. Real-time PCR was set up with Applied Biosystem SYBR Green Master Mix.

[6] = system: autologous memory B cells; assay: T-B co-culture, B cell help; type: cell-based, human; settings: CD4 T cells differentiated with activin A+IL-12, 7 days with SEB

Substance: activin A: commercial recombinant cytokine, homodimer of the INHBA gene product (inhibin beta A)
- induction of PD-1+CXCR5+ cells [1]: Potent induction of PD-1^+CXCR5^+ cells; also recorded: potent CXCR5 and PD-1 inducer for both human and non-human primate activated naïve CD4 T cells
- P-SMAD induction (SMAD2/3 [2]; tonsil PD-1intCXCR5int mTfh cells): moderate but specific P-SMAD induction
- P-SMAD induction (SMAD2/3 [2]; tonsil fully mature GC Tfh cells): did not
- phosphorylation of SMAD2/3 (SMAD2/3 [2]; tonsil naïve CD4 T cells cultured with activin A): quickly phosphorylated SMAD2/3
- phosphorylation of SMAD2/3 (SMAD2/3 [3]; blood naïve CD4 T cells, activin A 400 ng/ml): Phosphorylation of SMAD2/3 in naïve human CD4 T cells in response to activin A was observed
- induction of SMAD-independent pathways (SMAD2/3 [3]; downstream of activin A, time points analyzed): No relevant induction of SMAD-independent pathways
- in vitro mouse Tfh differentiation (mouse naïve CD4 T cells; activin A in the presence of IL-6): did not result in activin A mediated promotion of in vitro mouse Tfh differentiation
- PD-1 and CXCR5 expression (mouse naïve CD4 T cells; mouse CD4 T cells, activin A alone or with IL-12, C57BL/6 and BALB/c): did not have any relevant effect on PD-1 and CXCR5 expression by mouse CD4 T cells; also recorded: No relevant CXCR5 and PD-1 induction
- IL-21 production (human naïve CD4 T cells [4]; cells cultured with activin A+IL-12, PMA/Ionomycin re-stimulation): retained full IL-21 production potential
- TNFα and LTα protein expression (human naïve CD4 T cells [4]; day 3 cells, PMA/Ionomycin restimulation): superior ability of CD4 T cells cultured with activin A to express TNFα and LTα proteins
- LIF and LTα expression (human naïve CD4 T cells [5]; CD4 T cells cultured with activin A): enhanced CD4 T cell expression of LIF and LTα
- PRDM1 (BLIMP1) expression (human naïve CD4 T cells [5]; day 3 differentiated cells): express less PRDM1 (Blimp1)
- PRDM1 (BLIMP1) expression (human naïve CD4 T cells [5]; day 3 differentiated cells, listed as Activin A): significant downregulation of PRDM1
- ITGβ7 expression (human naïve CD4 T cells [5]; day 3 differentiated cells, flow cytometry): downregulated in the presence of activin A
- B cell help (B cell proliferation and survival, plasmablast differentiation, IgG production) [6]: functionally competent B cell helpers
